Source: patent publication US20230085307A1, “PYRIDAZINONE COMPOUND AND HERBICIDE” (NISSAN CHEMICAL CORPORATION, priority 2019, published 2023)

These molecules were tested on southern crabgrass (assay: Test Example 5: herbicidal effect by foliage application, plastic box (Table 20, symbol F)). Conditions: foliage application, 320 g/ha, evaluated three weeks after application.
Assay type: in vivo, southern crabgrass (Digitaria ciliaris)
In short: (§1)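 Foliar spray test: emulsion formulation diluted in water to a set application rate, sprayed onto 14-day-old plants raised in diluvial soil at 25° C to 30° C under glass. Both herbicidal effect and crop effect rated visually three weeks later.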

**Q.** With C#Cc1ccc2sc(-c3ccccc3OC)c(-c3c(O)c(C)nn(C)c3=O)c2c1 [2-187] as the molecule, how does the “herbicidal effect on F: southern crabgrass (criteria 0-5)” value read?
**A.** 4 (Herbicidal rate of 70% or more and less than 90%)

Each molecule was assayed on Italian ryegrass (assay: Test Example 5: herbicidal effect by foliage application, plastic box (Table 20, symbol K)). Conditions: foliage application, 320 g/ha, evaluated three weeks after application.
Assay type: in vivo, Italian ryegrass (Lolium multiflorum)
In short: as §1

**Q.** Which “herbicidal effect on K: Italian ryegrass (criteria 0-5)” value does the source give for C#Cc1ccc2sc(-c3ccccc3OC)c(-c3c(O)c(C)nn(C)c3=O)c2c1 [2-187] here?
**A.** 4 (Herbicidal rate of 70% or more and less than 90%)

These molecules were tested on redroot pigweed (assay: Test Example 4: herbicidal effect by soil treatment (Table 19, symbol N)). Conditions: amount of applied herbicide 320 g/ha.
Assay type: in vivo, redroot pigweed (Amaranthus retroflexus)
In short: (§2)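 Step 1: sow seeds in sterilized diluvial soil, cover ~1.5 cm. Step 2: spray diluted emulsion onto soil surface at predetermined rate. Step 3: greenhouse, 25–30° C, three weeks. Step 4: grade effect on each plant by earlier criteria.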

**Q.** How did the “N: redroot pigweed, herbicidal effect rating” value turn out when C#Cc1ccc2sc(-c3ccccc3OC)c(-c3c(O)c(C)nn(C)c3=O)c2c1 [2-187] was run?
**A.** 4 (Herbicidal rate of 70% or more and less than 90%)

The molecules below were run on lambsquarters (assay: Test Example 4: herbicidal effect by soil treatment (Table 19, symbol O)). Conditions: amount of applied herbicide 320 g/ha.
Assay type: in vivo, lambsquarters (Chenopodium album)
In short: as §2

**Q.** How did the “O: lambsquarters, herbicidal effect rating” value turn out when C#Cc1ccc2sc(-c3ccccc3OC)c(-c3c(O)c(C)nn(C)c3=O)c2c1 [2-187] was run?
**A.** 4 (Herbicidal rate of 70% or more and less than 90%)

Each molecule was assayed on velvetleaf (assay: Test Example 4: herbicidal effect by soil treatment (Table 19, symbol M)). Conditions: amount of applied herbicide 320 g/ha.
Assay type: in vivo, velvetleaf (Abutilon theophrasti)
In short: as §2

**Q.** Which “M: velvetleaf, herbicidal effect rating” value does the source give for C#Cc1ccc2sc(-c3ccccc3OC)c(-c3c(O)c(C)nn(C)c3=O)c2c1 [2-187] here?
**A.** 2 (Herbicidal rate of 20% or more and less than 40%)

Each molecule was assayed on wild oat (assay: Test Example 5: herbicidal effect by foliage application, plastic box (Table 20, symbol I)). Conditions: foliage application, 320 g/ha, evaluated three weeks after application.
Assay type: in vivo, wild oat (Avena fatua)
In short: as §1

**Q.** With C#Cc1ccc2sc(-c3ccccc3OC)c(-c3c(O)c(C)nn(C)c3=O)c2c1 [2-187] as the molecule, how does the “herbicidal effect on I: wild oat (criteria 0-5)” value read?
**A.** 0 (Herbicidal rate of 5% or less (almost no effect))

What follows are molecules tested on wild oat (assay: Test Example 4: herbicidal effect by soil treatment (Table 19, symbol I)). Conditions: amount of applied herbicide 320 g/ha.
Assay type: in vivo, wild oat (Avena fatua)
In short: as §2

**Q.** How did the “I: wild oat, herbicidal effect rating” value turn out when C#Cc1ccc2sc(-c3ccccc3OC)c(-c3c(O)c(C)nn(C)c3=O)c2c1 [2-187] was run?
**A.** 0 (Herbicidal rate of 5% or less (almost no effect))

These molecules were tested on blackgrass (assay: Test Example 5: herbicidal effect by foliage application, plastic box (Table 20, symbol J)). Conditions: foliage application, 320 g/ha, evaluated three weeks after application.
Assay type: in vivo, blackgrass (Alopecurus myosuroides)
In short: as §1

**Q.** Which “herbicidal effect on J: blackgrass (criteria 0-5)” value does the source give for C#Cc1ccc2sc(-c3ccccc3OC)c(-c3c(O)c(C)nn(C)c3=O)c2c1 [2-187] here?
**A.** 5 (Herbicidal rate of 90% or more (almost completely withered))

What follows are molecules tested on velvetleaf (assay: Test Example 5: herbicidal effect by foliage application, plastic box (Table 20, symbol M)). Conditions: foliage application, 320 g/ha, evaluated three weeks after application.
Assay type: in vivo, velvetleaf (Abutilon theophrasti)
In short: as §1

**Q.** How did the “herbicidal effect on M: velvetleaf (criteria 0-5)” value turn out when C#Cc1ccc2sc(-c3ccccc3OC)c(-c3c(O)c(C)nn(C)c3=O)c2c1 [2-187] was run?
**A.** 5 (Herbicidal rate of 90% or more (almost completely withered))

The molecules below were run on chickweed (assay: Test Example 4: herbicidal effect by soil treatment (Table 19, symbol P)). Conditions: amount of applied herbicide 320 g/ha.
Assay type: in vivo, common chickweed (Stellaria media)
In short: as §2

**Q.** For C#Cc1ccc2sc(-c3ccccc3OC)c(-c3c(O)c(C)nn(C)c3=O)c2c1 [2-187], which “P: chickweed, herbicidal effect rating” value is on record?
**A.** 3 (Herbicidal rate of 40% or more and less than 70%)

The molecules below were run on lambsquarters (assay: Test Example 5: herbicidal effect by foliage application, plastic box (Table 20, symbol O)). Conditions: foliage application, 320 g/ha, evaluated three weeks after application.
Assay type: in vivo, lambsquarters (Chenopodium album)
In short: as §1

**Q.** C#Cc1ccc2sc(-c3ccccc3OC)c(-c3c(O)c(C)nn(C)c3=O)c2c1 [2-187] was tested. Which “herbicidal effect on O: lambsquarters (criteria 0-5)” value did it give?
**A.** 4 (Herbicidal rate of 70% or more and less than 90%)

Each molecule was assayed on Italian ryegrass (assay: Test Example 4: herbicidal effect by soil treatment (Table 19, symbol K)). Conditions: amount of applied herbicide 320 g/ha.
Assay type: in vivo, Italian ryegrass (Lolium multiflorum)
In short: as §2

**Q.** Which “K: Italian ryegrass, herbicidal effect rating” value does the source give for C#Cc1ccc2sc(-c3ccccc3OC)c(-c3c(O)c(C)nn(C)c3=O)c2c1 [2-187] here?
**A.** 4 (Herbicidal rate of 70% or more and less than 90%)

What follows are molecules tested on barnyard grass (assay: Test Example 5: herbicidal effect by foliage application, plastic box (Table 20, symbol H)). Conditions: foliage application, 320 g/ha, evaluated three weeks after application.
Assay type: in vivo, barnyard grass (Echinochloa crus-galli)
In short: as §1

**Q.** For C#Cc1ccc2sc(-c3ccccc3OC)c(-c3c(O)c(C)nn(C)c3=O)c2c1 [2-187], which “herbicidal effect on H: barnyard grass (criteria 0-5)” value is on record?
**A.** 1 (Herbicidal rate of 5% or more and less than 20%)

Each molecule was assayed on persian speedwell (assay: Test Example 5: herbicidal effect by foliage application, plastic box (Table 20, symbol R)). Conditions: foliage application, 320 g/ha, evaluated three weeks after application.
Assay type: in vivo, Persian speedwell (Veronica persica)
In short: as §1

**Q.** With C#Cc1ccc2sc(-c3ccccc3OC)c(-c3c(O)c(C)nn(C)c3=O)c2c1 [2-187] as the molecule, how does the “herbicidal effect on R: persian speedwell (criteria 0-5)” value read?
**A.** 5 (Herbicidal rate of 90% or more (almost completely withered))

The molecules below were run on southern crabgrass (assay: Test Example 4: herbicidal effect by soil treatment (Table 19, symbol F)). Conditions: amount of applied herbicide 320 g/ha.
Assay type: in vivo, southern crabgrass (Digitaria ciliaris)
In short: as §2

**Q.** For C#Cc1ccc2sc(-c3ccccc3OC)c(-c3c(O)c(C)nn(C)c3=O)c2c1 [2-187], which “F: southern crabgrass, herbicidal effect rating” value is on record?
**A.** 1 (Herbicidal rate of 5% or more and less than 20%)

What follows are molecules tested on persian speedwell (assay: Test Example 4: herbicidal effect by soil treatment (Table 19, symbol R)). Conditions: amount of applied herbicide 320 g/ha.
Assay type: in vivo, Persian speedwell (Veronica persica)
In short: as §2

**Q.** For C#Cc1ccc2sc(-c3ccccc3OC)c(-c3c(O)c(C)nn(C)c3=O)c2c1 [2-187], which “R: persian speedwell, herbicidal effect rating” value is on record?
**A.** 0 (Herbicidal rate of 5% or less (almost no effect))

What follows are molecules tested on windgrass (assay: Test Example 5: herbicidal effect by foliage application, plastic box (Table 20, symbol L)). Conditions: foliage application, 320 g/ha, evaluated three weeks after application.
Assay type: in vivo, windgrass (Apera spica-venti)
In short: as §1

**Q.** How did the “herbicidal effect on L: windgrass (criteria 0-5)” value turn out when C#Cc1ccc2sc(-c3ccccc3OC)c(-c3c(O)c(C)nn(C)c3=O)c2c1 [2-187] was run?
**A.** 5 (Herbicidal rate of 90% or more (almost completely withered))

These molecules were tested on barnyard grass (assay: Test Example 4: herbicidal effect by soil treatment (Table 19, symbol H)). Conditions: amount of applied herbicide 320 g/ha.
Assay type: in vivo, barnyard grass (Echinochloa crus-galli)
In short: as §2

**Q.** With C#Cc1ccc2sc(-c3ccccc3OC)c(-c3c(O)c(C)nn(C)c3=O)c2c1 [2-187] as the molecule, how does the “H: barnyard grass, herbicidal effect rating” value read?
**A.** 3 (Herbicidal rate of 40% or more and less than 70%)

What follows are molecules tested on blackgrass (assay: Test Example 4: herbicidal effect by soil treatment (Table 19, symbol J)). Conditions: amount of applied herbicide 320 g/ha.
Assay type: in vivo, blackgrass (Alopecurus myosuroides)
In short: as §2

**Q.** Which “J: blackgrass, herbicidal effect rating” value does the source give for C#Cc1ccc2sc(-c3ccccc3OC)c(-c3c(O)c(C)nn(C)c3=O)c2c1 [2-187] here?
**A.** 4 (Herbicidal rate of 70% or more and less than 90%)

What follows are molecules tested on redroot pigweed (assay: Test Example 5: herbicidal effect by foliage application, plastic box (Table 20, symbol N)). Conditions: foliage application, 320 g/ha, evaluated three weeks after application.
Assay type: in vivo, redroot pigweed (Amaranthus retroflexus)
In short: as §1

**Q.** C#Cc1ccc2sc(-c3ccccc3OC)c(-c3c(O)c(C)nn(C)c3=O)c2c1 [2-187] was tested. Which “herbicidal effect on N: redroot pigweed (criteria 0-5)” value did it give?
**A.** 5 (Herbicidal rate of 90% or more (almost completely withered))

The molecules below were run on rice flat sedge (assay: Test Example 3: herbicidal effect by foliage application, Wagner pot (Table 18, symbol E)). Conditions: amount of applied herbicide 320 g/ha.
Assay type: in vivo, rice flat sedge (Cyperus iria)
In short: (§3)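 Plants were sown in alluvial soil held under 0.1–0.5 cm standing water and grown 14 days in a greenhouse at 25–30 °C. An emulsifiable formulation, water-diluted to the set dose, was then sprayed onto the foliage, and effects were scored three weeks later using previously defined criteria.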

**Q.** Which “herbicidal effect on E: rice flat sedge” value does the source give for C#Cc1ccc2sc(-c3ccccc3OC)c(-c3c(O)c(C)nn(C)c3=O)c2c1 [2-187] here?
**A.** 0 (Herbicidal rate of 5% or less (almost no effect))

What follows are molecules tested on green foxtail (assay: Test Example 5: herbicidal effect by foliage application, plastic box (Table 20, symbol G)). Conditions: foliage application, 320 g/ha, evaluated three weeks after application.
Assay type: in vivo, green foxtail (Setaria viridis)
In short: as §1

**Q.** C#Cc1ccc2sc(-c3ccccc3OC)c(-c3c(O)c(C)nn(C)c3=O)c2c1 [2-187] was tested. Which “herbicidal effect on G: green foxtail (criteria 0-5)” value did it give?
**A.** 3 (Herbicidal rate of 40% or more and less than 70%)

These molecules were tested on windgrass (assay: Test Example 4: herbicidal effect by soil treatment (Table 19, symbol L)). Conditions: amount of applied herbicide 320 g/ha.
Assay type: in vivo, windgrass (Apera spica-venti)
In short: as §2

**Q.** C#Cc1ccc2sc(-c3ccccc3OC)c(-c3c(O)c(C)nn(C)c3=O)c2c1 [2-187] was tested. Which “L: windgrass, herbicidal effect rating” value did it give?
**A.** 5 (Herbicidal rate of 90% or more (almost completely withered))

The molecules below were run on Chinese sprangletop (assay: Test Example 3: herbicidal effect by foliage application, Wagner pot (Table 18, symbol D)). Conditions: amount of applied herbicide 320 g/ha.
Assay type: in vivo, chinese sprangletop (Leptochloa chinensis)
In short: as §3

**Q.** How did the “herbicidal effect on D: Chinese sprangletop” value turn out when C#Cc1ccc2sc(-c3ccccc3OC)c(-c3c(O)c(C)nn(C)c3=O)c2c1 [2-187] was run?
**A.** 0 (Herbicidal rate of 5% or less (almost no effect))

The molecules below were run on chickweed (assay: Test Example 5: herbicidal effect by foliage application, plastic box (Table 20, symbol P)). Conditions: foliage application, 320 g/ha, evaluated three weeks after application.
Assay type: in vivo, common chickweed (Stellaria media)
In short: as §1

**Q.** With C#Cc1ccc2sc(-c3ccccc3OC)c(-c3c(O)c(C)nn(C)c3=O)c2c1 [2-187] as the molecule, how does the “herbicidal effect on P: chickweed (criteria 0-5)” value read?
**A.** 5 (Herbicidal rate of 90% or more (almost completely withered))

What follows are molecules tested on green foxtail (assay: Test Example 4: herbicidal effect by soil treatment (Table 19, symbol G)). Conditions: amount of applied herbicide 320 g/ha.
Assay type: in vivo, green foxtail (Setaria viridis)
In short: as §2

**Q.** For C#Cc1ccc2sc(-c3ccccc3OC)c(-c3c(O)c(C)nn(C)c3=O)c2c1 [2-187], which “G: green foxtail, herbicidal effect rating” value is on record?
**A.** 4 (Herbicidal rate of 70% or more and less than 90%)

Each molecule was assayed on barnyard grass (assay: Test Example 3: herbicidal effect by foliage application, Wagner pot (Table 18, symbol H)). Conditions: amount of applied herbicide 320 g/ha.
Assay type: in vivo, barnyard grass (Echinochloa crus-galli)
In short: as §3

**Q.** C#Cc1ccc2sc(-c3ccccc3OC)c(-c3c(O)c(C)nn(C)c3=O)c2c1 [2-187] was tested. Which “herbicidal effect on H: barnyard grass” value did it give?
**A.** 4 (Herbicidal rate of 70% or more and less than 90%)
